Source: US12077503B2, “Substituted cyclic amides and their use as herbicides” (FMC CORPORATION, priority 2015, dated 2024)

Assays:
Type in all cases: in vivo
[1] = tested on: ryegrass, Italian (Italian ryegrass, Lolium multiflorum); test: Test A postemergence; conditions: Lolium multiflorum, post-emergence, 240 h, postemergence
Procedure, shortened: (§1)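 Ratings of 0 (no effect) to 100 (complete control) come from visual comparison with untreated controls roughly 10 d after treatment. Test chemicals, formulated in a non-phytotoxic solvent mixture with surfactant, were applied either as a preemergence directed soil spray on seeded soil or postemergence to one- to two-leaf plants 2 to 10 cm tall.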

[2] = tested on: giant foxtail (Setaria faberii); test: Test A postemergence; conditions: Setaria faberi, post-emergence, 240 h, postemergence
Procedure, shortened: as §1

[3] = tested on: ragweed (common ragweed, Ambrosia elatior); test: Test A postemergence; conditions: Ambrosia artemisiifolia, post-emergence, 240 h, postemergence
Procedure, shortened: as §1

[4] = tested on: blackgrass (Alopecurus myosuroides); test: Test A postemergence; conditions: Alopecurus myosuroides, post-emergence, 240 h, postemergence
Procedure, shortened: as §1

[5] = tested on: Galium (catchweed bedstraw, Galium aparine); test: Test A postemergence; conditions: Galium, post-emergence, 240 h, postemergence
Procedure, shortened: as §1

corn (Zea mays) = test: Test A postemergence; conditions: Zea mays, post-emergence, 240 h, postemergence
Procedure, shortened: as §1

[6] = tested on: pigweed (Amaranthus retroflexus); test: Test A postemergence; conditions: Amaranthus retroflexus, post-emergence, 240 h, postemergence
Procedure, shortened: as §1

[7] = tested on: barnyardgrass (Echinochloa crus-galli); test: Test A postemergence; conditions: Echinochloa crus-galli, post-emergence, 240 h, postemergence
Procedure, shortened: as §1

[8] = tested on: wheat (Triticum aestivum); test: Test A postemergence; conditions: Triticum aestivum, post-emergence, 240 h, postemergence
Procedure, shortened: as §1

[9] = tested on: ryegrass, Italian (Italian ryegrass, Lolium multiflorum); test: Test A preemergence; conditions: Lolium multiflorum, pre-emergence, 240 h, preemergence, 0 to 100 scale where 0 is no effect and 100 is complete control, read-out: Ryegrass, Italian plant response rating
Procedure, shortened: as §1

[10] = tested on: giant foxtail (Setaria faberii); test: Test A preemergence; conditions: Setaria faberi, pre-emergence, 240 h, preemergence, 0 to 100 scale where 0 is no effect and 100 is complete control, read-out: Foxtail, Giant plant response rating
Procedure, shortened: as §1

[11] = tested on: ragweed (common ragweed, Ambrosia elatior); test: Test A preemergence; conditions: Ambrosia artemisiifolia, pre-emergence, 240 h, preemergence, 0 to 100 scale where 0 is no effect and 100 is complete control, read-out: Ragweed plant response rating
Procedure, shortened: as §1

[12] = tested on: pigweed (Amaranthus retroflexus); test: Test A preemergence; conditions: Amaranthus retroflexus, pre-emergence, 240 h, preemergence, 0 to 100 scale where 0 is no effect and 100 is complete control, read-out: Pigweed plant response rating
[13] = tested on: barnyardgrass (Echinochloa crus-galli); test: Test A preemergence; conditions: Echinochloa crus-galli, pre-emergence, 240 h, preemergence, 0 to 100 scale where 0 is no effect and 100 is complete control, read-out: Barnyardgrass plant response rating
Procedure, shortened: as §1

Kochia (Kochia scoparia) = test: Test A preemergence; conditions: Bassia scoparia, pre-emergence, 240 h, preemergence, 0 to 100 scale where 0 is no effect and 100 is complete control, read-out: Kochia plant response rating
Procedure, shortened: as §1

[14] = 125 g ai/ha, visual injury rating, approximately 10 d

With `Cc1ccc([C@H]2CCN(C)C(=O)[C@@H]2C(=O)Nc2ccccc2C(F)(F)F)cc1` [Compound 1219] the pest or weed control at 125 g/ha ([1]; 125 g ai/ha, visual injury vs untreated controls after approx. 10 d, 0 = no effect, 100 = complete control, read-out: Ryegrass, Italian plant response rating (0 to 100 scale)) was 0%, the pest or weed control at 500 g/ha ([1]; 500 g ai/ha, 0 to 100 scale, 0 is no effect, 100 is complete control, read-out: Ryegrass, Italian plant response rating) was 20% and the pest or weed control at 125 g/ha ([2]; 125 g ai/ha, visual injury vs untreated controls after approx. 10 d, 0 = no effect, 100 = complete control, read-out: Foxtail, Giant plant response rating (0 to 100 scale)) was 50%. It also gave a pest or weed control at 500 g/ha ([2]; 500 g ai/ha, 0 to 100 scale, 0 is no effect, 100 is complete control, read-out: Foxtail, Giant plant response rating) of 80%, a pest or weed control at 125 g/ha ([3]; 125 g ai/ha, visual injury vs untreated controls after approx. 10 d, 0 = no effect, 100 = complete control, read-out: Ragweed plant response rating (0 to 100 scale)) of 0% and a pest or weed control at 500 g/ha ([3]; 500 g ai/ha, 0 to 100 scale, 0 is no effect, 100 is complete control, read-out: Ragweed plant response rating) of 20%. It also gave a pest or weed control at 125 g/ha ([4]; 125 g ai/ha, visual injury vs untreated controls after approx. 10 d, 0 = no effect, 100 = complete control, read-out: Blackgrass plant response rating (0 to 100 scale)) of 0%, a pest or weed control at 500 g/ha ([4]; 500 g ai/ha, 0 to 100 scale, 0 is no effect, 100 is complete control, read-out: Blackgrass plant response rating) of 0% and a pest or weed control at 125 g/ha ([5]; 125 g ai/ha, visual injury vs untreated controls after approx. 10 d, 0 = no effect, 100 = complete control, read-out: Galium plant response rating (0 to 100 scale)) of 0%. It also gave a pest or weed control at 500 g/ha ([5]; 500 g ai/ha, 0 to 100 scale, 0 is no effect, 100 is complete control, read-out: Galium plant response rating) of 0%, a plant injury at 125 g/ha (corn (Zea mays); 125 g ai/ha, visual injury vs untreated controls after approx. 10 d, 0 = no effect, 100 = complete control, read-out: Corn plant response rating (0 to 100 scale)) of 0% and a plant injury at 500 g/ha (corn (Zea mays); 500 g ai/ha, 0 to 100 scale, 0 is no effect, 100 is complete control, read-out: Corn plant response rating) of 0%. The pest or weed control at 125 g/ha ([6]; 125 g ai/ha, visual injury vs untreated controls after approx. 10 d, 0 = no effect, 100 = complete control, read-out: Pigweed plant response rating (0 to 100 scale)) was 0%, the pest or weed control at 500 g/ha ([6]; 500 g ai/ha, 0 to 100 scale, 0 is no effect, 100 is complete control, read-out: Pigweed plant response rating) was 0% and the pest or weed control at 125 g/ha ([7]; 125 g ai/ha, visual injury vs untreated controls after approx. 10 d, 0 = no effect, 100 = complete control, read-out: Barnyardgrass plant response rating (0 to 100 scale)) was 30%. It also gave a pest or weed control at 500 g/ha ([7]; 500 g ai/ha, 0 to 100 scale, 0 is no effect, 100 is complete control, read-out: Barnyardgrass plant response rating) of 60%, a plant injury at 125 g/ha ([8]; 125 g ai/ha, visual injury vs untreated controls after approx. 10 d, 0 = no effect, 100 = complete control, read-out: Wheat plant response rating (0 to 100 scale)) of 0% and a plant injury at 500 g/ha ([8]; 500 g ai/ha, 0 to 100 scale, 0 is no effect, 100 is complete control, read-out: Wheat plant response rating) of 0%. The pest or weed control at 125 g/ha [9, 14] was 0%, the pest or weed control at 500 g/ha ([9]; 500 g ai/ha) was 0% and the pest or weed control at 125 g/ha [10, 14] was 80%. The pest or weed control at 500 g/ha ([10]; 500 g ai/ha) was 90%, the pest or weed control at 125 g/ha [11, 14] was 0% and the pest or weed control at 500 g/ha ([11]; 500 g ai/ha) was 0%. It also gave a pest or weed control at 125 g/ha [12, 14] of 0%, a pest or weed control at 500 g/ha ([12]; 500 g ai/ha) of 0% and a pest or weed control at 125 g/ha [13, 14] of 70%. The pest or weed control at 500 g/ha ([13]; 500 g ai/ha) was 90%, the pest or weed control at 125 g/ha (Kochia (Kochia scoparia); [14]) was 0% and the pest or weed control at 500 g/ha (Kochia (Kochia scoparia); 500 g ai/ha) was 0%.
